These results are taken from the supplement of paper PMC10307832.

What all share (experiment): relative viability (nuclei count vs DMSO), 5 days (fraction); higher = more cells survive
Compound in the assay “Tanzisertib + Lapatinib”: O[C@H]1CC[C@H](Nc2ncc3nc(Nc4c(F)cc(F)cc4F)n([C@H]4CCOC4)c3n2)CC1 [Tanzisertib] + CS(=O)(=O)CCNCc1ccc(-c2ccc3ncnc(Nc4ccc(OCc5cccc(F)c5)c(Cl)c4)c3c2)o1 [Lapatinib] (partner 2 µM)
The method, boiled down:
(§1)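 A single step with final 0.05% Triton X-100, 1% formaldehyde and 1 ug/ml Hoechst fixed the cells and stained nuclei 5 days after treatment. Lung cancer cell lines in 1536-well plates had been treated by pin tool the day after seeding with one drug alone or a fixed anchor-drug dose plus five library-drug doses (not always all listed) in √10 steps, and nuclei were counted on 4× images. Relative viability is the ratio of nuclei in treated wells to nuclei in vehicle wells, taken as the median of duplicate plates.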

Compound in the assay “Tanzisertib + Crizotinib”: O[C@H]1CC[C@H](Nc2ncc3nc(Nc4c(F)cc(F)cc4F)n([C@H]4CCOC4)c3n2)CC1 [Tanzisertib] + C[C@@H](Oc1cc(-c2cnn(C3CCNCC3)c2)cnc1N)c1c(Cl)ccc(F)c1Cl [Crizotinib] (partner 1 µM)
The method, boiled down: as §1

Compound in assay [1]: C1CNCCC1C2=CC(=NN2)C3=CC=NC=C3 + COc1cc2c(Oc3ccc(NC(=O)C4(C(=O)Nc5ccc(F)cc5)CC4)cc3F)ccnc2cc1OCCCN1CCOCC1 [Foretinib] (partner 0.25 µM)
Summed up: as §1

Compound in assay [2]: C[C@@H](N)c1ccc(C(=O)Nc2ccnc3[nH]ccc23)cc1 + N=C(N)NC(=N)NCCc1ccccc1 [Phenformin] (partner 250 µM)
Summed up:
as §1

Turning to UMC-11, the relative viability is 1.13 in the assay with Tanzisertib + Lapatinib (first compound 0.08 µM); 0.974 with Tanzisertib + Lapatinib (first compound 0.253 µM); 1.1 with Tanzisertib + Lapatinib (first compound 0.8 µM); 0.89 in the assay with Tanzisertib + Lapatinib (first compound 2.53 µM); 0.84 with Tanzisertib + Lapatinib (first compound 8 µM); 0.654 with Tanzisertib + Crizotinib (first compound 0.08 µM). Besides, the relative viability stood at 0.703 with Tanzisertib + Crizotinib (first compound 0.253 µM); 0.631 with Tanzisertib + Crizotinib (first compound 0.8 µM); 0.687 with Tanzisertib + Crizotinib (first compound 2.53 µM); 0.675 in the assay with Tanzisertib + Crizotinib (first compound 8 µM); 1 in assay [1] (first compound 0.08 µM); 1.17 in assay [1] (first compound 0.8 µM). The relative viability was determined as 1.09 in assay [1] (first compound 2.53 µM); 1.09 in assay [1] (first compound 8 µM); 0.268 in assay [2] (first compound 0.04 µM); 0.358 in assay [2] (first compound 0.1265 µM); 0.354 in assay [2] (first compound 0.4 µM); 0.228 in assay [2] (first compound 1.265 µM). For the same cell line, in assay [2] (first compound 4 µM), the relative viability was determined as 0.234.
